Measured values from ChEMBL document CHEMBL1201862, “PubChem BioAssay data set” (2004).
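1) Cells in 96-well plates. 2) Compound, 48 h, 5 concentrations. 3) Linear interpolation between surrounding doses. 4) Unreached endpoint = highest concentration. GI50 = concentration required for 50% inhibition of growth.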 Calls of active or inactive are those of the source. Rule as the data show it: active = GI50 up to about 1.1 µM and inactive = higher.

How the values were obtained:
Assay in all cases: DTP human tumour cell line panel, 48 h
[1] = test system: NCI-H226
[2] = test system: M14
[3] = test system: SK-MEL-28
[4] = test system: TK-10
[5] = test system: HOP-62
[6] = test system: OVCAR-8
[7] = test system: UO-31
[8] = test system: HCT-15
[9] = test system: HL-60
[10] = test system: CCRF-CEM
[11] = test system: KM12
[12] = test system: IGROV-1
[13] = test system: MOLT-4
[14] = test system: SN12C
[15] = test system: RPMI-8226
[16] = test system: U-251
[17] = test system: K562
[18] = test system: SK-MEL-2

Row | SMILES | GI50 [1] | GI50 [2] | GI50 [3] | GI50 [4] | GI50 [5] | GI50 [6] | GI50 [7] | GI50 [8] | GI50 [9] | GI50 [10] | GI50 [11] | GI50 [12] | GI50 [13] | GI50 [14] | GI50 [15] | GI50 [16] | GI50 [17] | GI50 [18]
1 | Cc1ccc([N+](=O)[O-])cc1NC(=O)C(=O)Cc1nc2ccc(C(=O)c3ccccc3)cc2nc1O | > 100 µM (inactive) | > 100 µM (inactive) | > 100 µM (inactive) | > 100 µM (inactive) | > 100 µM (inactive) | > 100 µM (inactive) | > 100 µM (inactive) | > 100 µM | > 100 µM (inactive) | > 100 µM (inactive) | 93.3 µM (inactive) | > 100 µM (inactive) | > 100 µM (inactive) | > 100 µM (inactive) |  |  |  | 
2 | COC(=O)C1=Cc2c(cc(OC)c(OC)c2OC)[C@H](c2ccc(OC)c(OC)c2OC)C1C(=O)OC (some centres not stated) | > 100 µM (inactive) | > 100 µM (inactive) | > 100 µM (inactive) | > 100 µM (inactive) | > 100 µM (inactive) | > 100 µM (inactive) | 47.1 µM (inactive) | 75 µM | 54.6 µM (inactive) | > 100 µM (inactive) | > 100 µM (inactive) | > 100 µM (inactive) | 83 µM (inactive) | > 100 µM (inactive) | 89.5 µM (inactive) | > 100 µM (inactive) | > 100 µM (inactive) | 
3 | COC(=O)C1C(/C=C/c2ccoc2)ON2CCC[C@@H]12 (some centres not stated) | > 100 µM (inactive) | > 100 µM (inactive) | > 100 µM (inactive) | > 100 µM (inactive) | > 100 µM (inactive) | > 100 µM (inactive) | > 100 µM (inactive) |  | > 100 µM (inactive) |  | > 100 µM (inactive) |  |  | > 100 µM (inactive) |  | > 100 µM (inactive) |  | > 100 µM (inactive)
4 | Cc1ccc(S(=O)OC2C3CC4CC(C3)CC2C4)cc1 (configuration not stated) | > 100 µM (inactive) | > 100 µM (inactive) | > 100 µM (inactive) | > 100 µM (inactive) | > 100 µM (inactive) | > 100 µM (inactive) | > 100 µM (inactive) | > 100 µM | > 100 µM (inactive) |  | > 100 µM (inactive) | > 100 µM (inactive) | > 100 µM (inactive) | > 100 µM (inactive) | > 100 µM (inactive) | > 100 µM (inactive) | > 100 µM (inactive) | 
5 | Cc1c(Cl)ccc2c1NC(=O)C2(O)CC(=O)c1ccc2ccccc2c1 (configuration not stated) | 24.4 µM (inactive) | 86.1 µM (inactive) | 48.2 µM (inactive) | > 100 µM (inactive) | > 100 µM (inactive) | 55.2 µM (inactive) | 22.4 µM (inactive) | 41.1 µM |  | 29 µM (inactive) | 37.2 µM (inactive) | 37.5 µM (inactive) | 18.6 µM (inactive) | 76.7 µM (inactive) | 19.1 µM (inactive) | 71.6 µM (inactive) | 28.6 µM (inactive) | > 100 µM (inactive)
6 | Cc1ccc(C(c2c(O)c3ccccc3n(-c3ccccc3)c2=O)c2c(O)c3ccccc3n(-c3ccccc3)c2=O)cc1 | > 100 µM (inactive) |  | > 100 µM (inactive) | > 100 µM (inactive) | > 100 µM (inactive) |  | > 100 µM (inactive) | > 100 µM |  | 7.06 µM (inactive) | > 100 µM (inactive) |  | 24.2 µM (inactive) | > 100 µM (inactive) | > 100 µM (inactive) | > 100 µM (inactive) | > 100 µM (inactive) | > 100 µM (inactive)
7 | C=CC(=O)N1C/C(=C\c2ccc(Cl)c(Cl)c2)C(=O)/C(=C/c2ccc(Cl)c(Cl)c2)C1 | 1.25 µM (inactive) | 0.226 µM (active) | 0.458 µM (active) | 0.501 µM (active) | 0.264 µM (active) | 0.115 µM (active) | 0.207 µM (active) | 0.0716 µM |  | 0.0228 µM (active) | 0.237 µM (active) | 0.124 µM (active) | 0.103 µM (active) | 0.155 µM (active) | 0.0246 µM (active) | 0.0226 µM (active) | 0.0404 µM (active) | 0.42 µM (active)
